pEC50, pIC50: −log10 of the molar value. Active and inactive are the calls of the source.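 The calls were made as follows: active = compounds giving half or more protection of infected cells from virus-caused growth loss, again on retest; inactive = the rest.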 Where a SMILES comes first, the peptide text is derived from it.
Test system: CEM cells HIV-1 protection, formazan growth assay
Assay: NCI AIDS Antiviral Assay
Conditions: for pIC50: measured here: growth of uninfected CEM cells
How it was run: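 Steps: treat uninfected and HIV-1-infected human CEM cells at five drug levels; quantify growth by soluble formazan; retest any compound reaching 50% protection; classify actives from the retest.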

CC(C)N=C1CCCC1C(=S)SSC(=S)C1CCCC1=NC(C)C (stereo not given)
pEC50: < 3.70 | pIC50: 4.97

O=C1CC(=O)NC(=NN2C(=O)CSC2C(=O)c2ccco2)N1 (stereo not given)
pEC50: 4.45 | pIC50: 3.24

N#CC(C#N)=CNC(=S)Nc1ccc(Cl)c(Cl)c1
pEC50: < 3.70 | pIC50: 4.82

Clc1ccc(NN(c2ccccc2)c2ccc(Cl)cc2)cc1
pEC50: < 3.70 | pIC50: 3.94

CN(C)CCCN1C(=O)CCC(=O)Nc2ccccc2-c2ccccc21
outcome: inactive

CCC(C)C(NC(=O)C1CCCN1C(=O)C(Cc1ccc(O)cc1)NC(=O)C(CC(N)=O)NC(=O)C(CCC(N)=O)NC(=O)C(CO)NC(=O)C(N)C(C)C)C(=O)NC(CC(C)C)C(=O)NC(CCC(N)=O)C(N)=O (stereo not given) (H-VSQNYPILQ-NH2; configuration not given here)
pEC50: < 4.23 | pIC50: < 4.23

CSc1cccc(-n2c3nc(=O)n(C)c(=O)c-3nc3ccccc32)c1
outcome: inactive

O=c1c(Sc2c(O)c3ccccc3c3ccccc3c2=O)c(O)c2ccccc2c2ccccc12
outcome: inactive

COC(=O)C([O][Ge]([CH3])([CH3])[CH3])c1ccccc1 (stereo not given)
pEC50: < 3.60 | pIC50: < 3.60

C/C(=C1/N=C(c2cc([N+](=O)[O-])ccc2Cl)N(c2ccc(Br)cc2)C1=O)c1cc2ccccc2oc1=O
pEC50: < 4.62

CC(CCC(=O)O)C1CCC2C3C(O)CC4CC(O)CCC4(C)C3CC(O)C12C (stereo not given) (tested in a mixture with another compound)
pEC50: < 3.70 | pIC50: < 3.70

N#Cc1ccccc1NC(=O)C(=O)C(C(=O)c1ccccc1F)C1OC(=O)c2ccccc21 (stereo not given)
pEC50: < 3.95 | pIC50: 4.79

CCOC(=O)/N=C(\N)SCc1ccccc1
outcome: inactive

CCC1C/C(=N\N=C2CC(C)(C)NC(C)(C)C2)CC(C)(C)N1 (stereo not given)
pEC50: < 3.70 | pIC50: < 3.70

CO/C=C(/C#N)S(=O)(=O)/C(C#N)=C/OC
pEC50: < 3.70 | pIC50: < 3.70

CCOC(=O)C1C(c2ccc([N+](=O)[O-])cc2)NC(c2ccc([N+](=O)[O-])cc2)C(C(=O)OC)S1(=O)=O (stereo not given)
pEC50: < 5.40 | pIC50: < 5.40

CCOC(=O)CC1c2ccc(O)cc2OC(=O)C1c1ccc([N+](=O)[O-])cc1 (stereo not given)
pEC50: < 3.70 | pIC50: 4.50

CN(C)c1ccc(C2SCC(=O)N2c2ccc(Oc3ccc(Cl)cc3)c(Cl)c2)cc1 (stereo not given)
pEC50: < 3.70 | pIC50: 4.53

CC(NC(=O)CNP(=O)(c1ccccc1)c1ccccc1)C(=O)NC(Cc1ccccc1)C(=O)OCc1ccccc1 (stereo not given)
pEC50: < 3.70 | pIC50: 4.69

N#Cc1c(-c2ccc(Cl)cc2)c(C#N)c(=O)n(NS(=O)(=O)c2ccccc2)c1-c1ccccc1
pEC50: < 3.82 | pIC50: 4.49

CC(CN1CC(=O)NC(=O)C1)N1CC(=O)NC(=O)C1 (stereo not given)
pEC50: < 3.33 | pIC50: 4.39

CC1OC2CC(=O)OC2C2=C1C(=O)c1c(O)cccc1C2=O (stereo not given)
pEC50: < 5.70 | pIC50: 7.55

CC1(C)OCC(C(O)C2OC(C)(C)OC2/C=N\O)O1 (stereo not given)
pEC50: < 3.04 | pIC50: < 3.04

CC(=O)OC/C=C/[C@H](O[Si](C)(C)C(C)(C)C)[C@@H](O)/C=C/COC(C)=O
pEC50: < 3.70 | pIC50: 3.79

O=C(CC(=O)N1N=C(n2ccc3ccccc32)CC1c1ccccc1)Nc1ccc(Cl)cc1 (stereo not given)
pEC50: < 5.92 | pIC50: < 5.92

C=C(C)C(=O)O[C@H]1[C@H]2[C@H](OC(=O)[C@H]2C)[C@H](O)[C@@H](C)[C@@H]2C=CC(=O)[C@]21C
pEC50: < 3.44 | pIC50: 5.72

C[C@@H]1C[C@H]2[C@@H]3CCC4=CC(=O)CC[C@]4(C)[C@@]3(F)[C@@H](O)C[C@]2(C)[C@@]1(C)O
pEC50: < 3.70 | pIC50: 4.06

Cc1cc(N=Nc2c(N)c(C)cc(N=Nc3ccc(C(N)=O)cc3)c2N)ccc1N=Nc1cc(C(=O)O)c(O)c(S(=O)(=O)O)c1
pEC50: 5.05 | pIC50: < 3.70

COc1ccc(C(c2c(O)c3ccccc3oc2=O)N2CCOCC2)c(OC)c1 (stereo not given)
pEC50: < 3.70 | pIC50: 4.04

COC(=O)[C@@H]1COC(C(C)(C)C)N1C(=O)C(c1ccccc1)c1ccccc1 (stereo not given in full)
outcome: inactive

C[C@]12C=CC(=O)C=C1[C@@H](F)C[C@H]1[C@@H]3CC[C@](O)(C(=O)CO)[C@@]3(C)C[C@H](O)[C@@]12F
outcome: inactive

CC(=O)O[C@]1(C(C)=O)CC[C@H]2[C@@H]3C=C(Cl)C4=CC(=O)CC[C@]4(C)[C@H]3CC[C@@]21C
pEC50: < 3.70 | pIC50: < 3.70

NC(N)=NS(=O)(=O)c1ccc(NCc2c3ccccc3nc3ccccc23)cc1
pEC50: < 5.70 | pIC50: 6.71

CN(C)C1C(=O)C(C(=O)NCNCCC(=O)O)=C(O)C2(O)C(=O)C3=C(O)c4c(O)cccc4C(C)(O)C3CC12 (stereo not given)
pEC50: < 4.95 | pIC50: < 4.95

COC(=O)[C@@H]1CSC(=S)N1C(=O)C[C@@H]1CC=CC[C@@H]1CC(=O)Sc1ccccc1
outcome: inactive

CCC1=NC(N/N=C/c2ccccc2O)=N/C1=C\c1ccccc1O
pEC50: < 4.30 | pIC50: 5.04

COc1cc(/C=N/Nc2nnc3c4ccccc4c4ncccc4c3n2)cc(OC)c1OC
pEC50: < 4.00 | pIC50: 4.24

COC(=O)C(C)(C)C(=O)C(C)(C)P(C)(=O)OC (stereo not given)
pEC50: < 3.70 | pIC50: < 3.70

CC(=O)O[C@H]1CC[C@]2(C)C3CC[C@]4(C)C([C@H](C)CCCC(C)C)CCC4[C@]3(/C=N/O)n3c(=O)n(-c4ccccc4)c(=O)n3[C@]2(/C=N\O)C1 (stereo not given in full)
pEC50: < 3.70 | pIC50: 4.96

COc1ccc(/C=C2\N=C(N3CCOCC3)NC2=O)cc1
pEC50: < 3.70 | pIC50: < 3.70

CCN(CC)CCCC(C)Nc1cc(-c2ccccc2)nc2ccc(OC)cc12 (stereo not given)
pEC50: < 3.44 | pIC50: 5.70

CCOC(=O)C(C)(C)Oc1ccc(/C=C/C(=O)c2ccc(Cl)cc2)cc1
pEC50: < 5.00 | pIC50: < 5.00

[C-]#[N+][C@@]1(C)CCC2C(C)CC[C@@H](C(=C)C)[C@@]23C=C(C)CC[C@H]31 (stereo not given in full)
pEC50: < 3.70 | pIC50: 3.86

CC(=O)NC(CCCNC(=O)OCc1ccccc1)C(=O)NCc1ccccc1 (stereo not given)
pEC50: < 3.77 | pIC50: < 3.77

COC(=O)C1=CCON(c2ccccc2)C1c1ccccc1 (stereo not given)
pEC50: < 4.34

Cc1ncc([N+](=O)[O-])n1CCOC(N)=O
pEC50: < 3.70 | pIC50: < 3.70

Cc1ccc(S(=O)(=O)N2CCCCN(S(=O)(=O)c3ccc(C)cc3)Cc3ccccc3OCCOCCOc3c4cccc3Cc3cccc5c3OCCOCCOc3ccccc3CN(S(=O)(=O)c3ccc(C)cc3)CCCN(S(=O)(=O)c3ccc(C)cc3)Cc3ccccc3OCCOCCOc3c(cccc3C4)Cc3cccc(c3OCCOCCOc3ccccc3C2)C5)cc1
pEC50: < 4.00 | pIC50: < 4.00

CC1(c2cccc(N)c2)C2C(=O)NC(=O)C1C(=O)NC2=O (stereo not given)
pEC50: < 3.48 | pIC50: 4.25

C=C(C)COc1ccc(C2OCC(CC)C(CCC)O2)cc1 (stereo not given)
pEC50: < 3.70 | pIC50: 4.05

Cc1cccc(C)c1NC(=O)CCc1n[nH]c(=S)o1
pEC50: < 3.33 | pIC50: < 3.33

Cc1cc2c(c(N)c1C)C(=O)c1ccccc1C2=O
outcome: inactive

N=C(N)CCNC(=O)C1CCC(N)=N1 (stereo not given)
pEC50: < 3.07 | pIC50: 4.77

Cn1c2c(c3ccccc31)CCN(CCCCN1CCCCC1)C2=O
pEC50: < 3.43 | pIC50: 4.23

CCCN(CCC)CCc1cc(C(C)=O)n(S(=O)(=O)c2ccc(C)cc2)c1
pEC50: < 3.23 | pIC50: 3.58

Cc1cc(S(=O)(=O)Nc2nc(N)nc(N3CCCCC3)n2)c(S)cc1Cl
pEC50: < 3.70 | pIC50: < 3.70

O=C(CN1CCCCC1)c1ccc2c(c1)Cc1cc(C(=O)CN3CCCCC3)ccc1O2
pEC50: < 4.15 | pIC50: 4.48

O=C1C(C(O)(C(F)(F)Cl)C(F)(F)Cl)CCC1C(O)(C(F)(F)Cl)C(F)(F)Cl (stereo not given)
pEC50: < 3.70 | pIC50: 5.36

CCOC(=O)CN1C(=O)Cc2ccccc21
pEC50: < 3.70 | pIC50: 4.01

C[C@]12CC[C@@H]3c4ccc(OS(N)(=O)=O)cc4CC[C@H]3[C@@H]1CCC2=O
outcome: inactive

CC1(C)C(C(=O)O)C1C(=O)O (stereo not given)
pEC50: < 3.70 | pIC50: < 3.70

CCC(=O)n1c(=O)n(-c2ccc([N+](=O)[O-])cc2)c(=O)n1C(=O)CC
pEC50: < 3.70 | pIC50: < 3.70

N#CN/C(N)=N/C/N=C(\N)NC#N
pEC50: < 3.30 | pIC50: < 3.30

O=C(CBr)Nc1ccccc1-c1ccccc1NC(=O)CBr
outcome: inactive

O=c1cn[nH]c2c(F)cccc12
pEC50: < 3.19 | pIC50: 3.21

Nn1c(=O)n(Cc2ccccc2)n(-c2ccccc2)c1=O
outcome: inactive

Cc1cc(O)c(C(C)C)cc1NC(=O)Nc1cccc2ccccc12
pEC50: < 4.25 | pIC50: 4.39

O=[N+]([O-])c1ccc2c(c1)C1=C(CO2)Cc2ccccc2O1
outcome: inactive

CCCN(CCC)CCc1ccc(OC2=CCN(C)CC2)cc1
pEC50: < 3.70 | pIC50: 4.06

CC1Oc2cc3c(-c4c(O)cc(O)c5c(O)c6c(cc45)OC(C)C(C)C6=O)c(O)cc(O)c3c(O)c2C(=O)C1C (stereo not given)
pEC50: < 4.46 | pIC50: 6.42

Cc1cc2[n-]c1/C=c1\[n-]/c(c(CCC(=O)O)c1C)=C\c1[n-]c(c(C)c1CCC(=O)O)/C=c1/cc(C)/c([n-]1)=C/2.[Co]
pEC50: < 4.62 | pIC50: < 4.62

c1ccc(SC23C4C5C6C4C2C6C53)nc1 (stereo not given)
pEC50: < 3.82 | pIC50: 4.11

C[C@H](NC1=CC(=O)C(N[C@@H](C)[C@H](O)c2ccccc2)=CC1=O)[C@H](O)c1ccccc1
pEC50: < 3.70 | pIC50: 3.85

CNc1ncc2nc(C(=O)O)c(=O)n(C)c2n1
pEC50: < 3.70 | pIC50: < 3.70

O=C1Cc2c([nH]c3ccccc23)-c2cc(Br)ccc2N1
pEC50: < 4.38 | pIC50: < 4.38

COc1cccc2c(=O)oc(-c3ccccc3C)nc12
pEC50: < 3.70 | pIC50: 4.34

CCOC(=O)C(Br)=C1OC(=O)c2ccccc2-c2ccccc21 (mixture of isomers)
pEC50: < 4.44 | pIC50: < 4.44

CSC12c3cc(C)n(-c4ccc(I)cc4)c3CC(C)(C)CN1C(=O)C2Oc1ccccc1 (stereo not given)
pEC50: < 3.70 | pIC50: 4.12

NP(=O)(Nc1ccccc1)Nc1ccccc1
pEC50: < 3.70 | pIC50: < 3.70

O=[N+]([O-])c1ccc(S(=O)(=O)n2c3ccc(Br)cc3c3nc4ccccc4nc32)cc1
pEC50: < 4.00 | pIC50: < 4.00

OC1c2ccccc2C2(O)C1C(c1ccccc1)C(c1ccccc1)C2(O)c1ccccc1 (stereo not given)
outcome: inactive

Source: PubChem BioAssay AID179 (DTP/NCI, 2004)
